Experimental data: PMC6013238, “Development of novel NEMO-binding domain mimetics for inhibiting IKK/NF-κB activation” (PLoS Biology, 2018)
Several values for one entry are separate records, joined by “and”; a condition that tells them apart may be missing. Equal values may be shown once.

Legend:
[1] = system: NF-κB DNA binding activity; experiment: EMSA of NF-κB DNA binding activity in muscle of mdx mice after a single i.p. dose; assay type: in vivo, mouse; conditions: for NF-κB DNA binding activity in quadriceps (EMSA): mdx mice, single i.p. 10 mg/kg, 1 h and 2 h post injection
Experimental: To confirm that the NBD mimetics reduce IKK kinase activity, phosphorylation of IκBα by IKK in response to 10 ng/ml of TNF-α was measured by western blot at 0, 5, and 10 min after stimulation. […] To determine whether the mimetics also reduce NF-κB DNA binding activity, electrophoretic mobility shift assay (EMSA) was conducted both in vitro and in vivo. […] The addition of acetonitrile increased the stability of both ZINC compounds, especially ZINC 5 (Fig 3D).
Fig 3 Two identified small molecules reduce NF-κB DNA binding activity in vivo and in vitro. (A) Levels of p-IκBα with or without treatment in response to TNF-α were determined by western blot analysis. HEK293 cells were pretreated with DMSO, ZINC12909780 (100 μM), and ZINC5 (100 μM) for 30 min followed by the stimulation of 10 ng/ml of TNF-α for 0, 5, and 10 min. Cell lysates were prepared for immunoblot against p-IκBα. GAPDH was used as a loading control. (B) EMSA analysis detecting NF-κB DNA binding activity was performed in C2C12 myoblasts. Cells were pretreated with 200 μM of DMSO, ZINC12909780, and ZINC5 in serum-free media for 1 h. TNF-α was then added to a final concentration of 10 ng/ml and incubated for 15 min. Nuclear extract was obtained for EMSA analysis. (C) EMSA analysis assessing NF-κB DNA binding activity in vivo was performed with quadriceps from mdx mice. […] Quadriceps was harvested at 1 h and 2 h post injection for EMSA analysis. (D) The time-course pharmacokinetics of ZINC5 and ZINC12909780 in FBS media or FBS media containing acetonitrile. Underlying data can be found in S1 Data. EMSA, electrophoretic mobility shift assay; HEK293, human embryonic kidney 293 cells; i.p., intraperitoneal; NF-κB, nuclear factor κB; t1/2, half-life; TNF-α; tumor necrosis factor α. […]
Supplementary file pbio.2004663.s005.tif: S4 Fig Chronic treatment with NBD mimetics improves muscle pathology by inhibiting NF-κB DNA binding activity in mdx mice. (A) Quantification of percentage of centralized myonuclei. […]

[2] = Body weight of chronically treated mdx mice; conditions: in g (unit assumed); for Body weight AVG: group average (FigS3A); for Body weight: individual mouse (FigS3A)
mdx mice = experiment: Chronic treatment of mdx mice, forelimb grip strength test; assay type: in vivo, mouse; conditions: Fig 7G, single mice
From the text: Fig 7 NBD mimetics improve muscular pathology and grip strength in mdx mice. (A) Shown is the treatment regimen with NBD mimetics in mdx mice. (B) Hematoxylin–eosin staining of TA muscle from 7-wk-old, treated or untreated mdx mice. Images were taken at magnification of 20×. Representative images were shown for each treatment group. […] (E) TA muscle from 7-wk-old, treated or untreated mdx mice was stained with laminin by IHC to outline myofibers. Overall images of TA muscle were shown on the left side, and the inset panel images were shown on the right side. (F) Quantitation of minimum Feret diameter in centrally and noncentrally nucleated myofibers. (G) Forelimb force determined by grip strength test. Five-wk-old (2 wk post treatment) and 7-wk-old (4 wk post treatment) mdx mice, treated or untreated, were tested for forelimb grip strength. Five sequential tests were performed, and the force was normalized to body weight. Data were shown as mean +/− SEM. Dosages used are as follows: SR12343 (30 mg/kg), SR12460 (30 mg/kg), and 8K-NBD peptide (10 mg/kg). n = 6–7 each group. *P < 0.05, **P < 0.01. Underlying data can be found in S1 Data. eMyHC, embryonic myosin heavy chain; IHC, immunohistochemistry; NBD, NEMO-binding domain; NEMO, NF-κB essential modulator; Pax7, paired box protein 7; qRT-PCR, quantitative real-time polymerase chain reaction; TA, tibialis anterior. To determine whether the NBD mimetics improved muscle strength, grip strength was measured 2 wk and 4 wk post treatment to assess forelimb strength (Fig 7G). […] Seven-wk-old treated or untreated mdx mice were measured for forelimb grip strength by using a digital grip strength meter paired with a metal grid (Bioseb, Vitrolles, France). Mice were allowed to grip the metal grid tightly, and readings were obtained by gently pulling the tail backward until release. Five sequential measurements were performed, and the average force was calculated.

Row | Structure (SMILES) | NF-κB DNA binding activity in quadriceps (EMSA) [1] | Body weight AVG ([2]; Day 21) | Body weight ([2]; Day 21) | Body weight AVG ([2]; Day 23) | Body weight ([2]; Day 23) | Body weight AVG ([2]; Day 26) | Body weight ([2]; Day 26) | Body weight AVG ([2]; Day 28) | Body weight ([2]; Day 28) | Body weight AVG ([2]; Day 30) | Body weight ([2]; Day 30) | Body weight AVG ([2]; Day 32) | Body weight ([2]; Day 32) | Body weight AVG ([2]; Day 34) | Body weight ([2]; Day 34) | Body weight AVG ([2]; Day 37) | Body weight ([2]; Day 37) | Body weight AVG ([2]; Day 39) | Body weight ([2]; Day 39) | Body weight AVG ([2]; Day 41) | further results
1 | Nc1ncccc1C(=O)OCC(=O)Nc1ccc(Cl)cc1F [ZINC12909780] | inhibited NF-κB DNA binding activity |  |  |  |  |  |  |  |  |  |  |  |  |  |  |  |  |  |  |  | 
2 | O=C(COC(=O)Cc1ccccc1F)Nc1ccc(Cl)cn1 [ZINC5] | inhibited NF-κB DNA binding activity |  |  |  |  |  |  |  |  |  |  |  |  |  |  |  |  |  |  |  | 
3 | O=C(CNc1ccc(Cl)cn1)NCCc1cccc(Br)c1 [SR12343] |  | 8.8 | 8.1 and 9 and 8.6 and 10 and 8.3 | 10.48 | 9.5 and 11.4 and 9.8 and 10.7 and 11 | 12.2 | 10.8 and 13.9 and 12.3 and 11.7 | 13.48 | 12.7 and 14.8 and 12.2 and 13.2 and 14.5 | 15.66 | 12.5 and 17.3 and 16.6 and 15.5 and 16.4 | 18.96 | 16.4 and 21.5 and 20 and 18 and 18.9 | 19.78 | 16.9 and 22.5 and 20.5 and 19.4 and 19.6 | 20.46 | 18.3 and 23 and 21.4 and 19.4 and 20.2 | 21.7333 | 18.2 and 24.1 and 22.9 | 22.4 | Body weight ([2]; Day 41): 19.6 and 25 and 22.6; Body weight AVG ([2]; Day 44): 22.9667; Body weight ([2]; Day 44): 20 and 24.7 and 24.2; Body weight AVG ([2]; Day 46): 22.8667; Body weight ([2]; Day 46): 21 and 24 and 23.6; Forelimb grip strength, force normalized to body weight (mdx mice; 2 week post treatment): significantly improved forelimb strength; Forelimb grip strength, force normalized to body weight (mdx mice; 2 week post treatment, listed as SR 12343): 3.61 and 3.7248 and 3.659 and 4.054; Forelimb grip strength, force normalized to body weight (mdx mice; 4 week post treatment): 4.866 and 4.5019 and 4.825 and 4.175 and 4.644 and 3.675 and 4.427; NF-κB DNA binding in TA muscle (EMSA) ([1]; 9-wk-old mdx mice, single injection 30 mg/kg i.p., 2 h post injection): reduction in NF-κB DNA binding
4 | O=C(CNCCc1cc(F)cc(F)c1)Nc1ccc(Cl)cn1 [SR12460] |  | 8.34 | 8.5 and 8.8 and 6.9 and 9 | 9.96 | 10.5 and 9.7 and 8.5 and 10.3 and 10.8 | 11.42 | 12.6 and 10.7 and 10.9 and 11.3 and 11.6 | 13.58 | 14.1 and 14.6 and 13.2 and 12.6 and 13.4 | 14.92 | 16.1 and 13.5 and 14.9 and 14.4 and 15.7 | 18.56 | 20.3 and 16.4 and 20.2 and 18.3 and 17.6 | 19.58 | 21 and 17.1 and 21.1 and 18.8 and 19.9 | 20.22 | 22.2 and 18.3 and 19.3 and 19.1 | 21.5333 | 22.3 and 18.8 and 23.5 | 22.4 | Body weight ([2]; Day 41): 23.1 and 19.5 and 24.6; Body weight AVG ([2]; Day 44): 22.7333; Body weight ([2]; Day 44): 23.7 and 19.3 and 25.2; Body weight AVG ([2]; Day 46): 23.7; Body weight ([2]; Day 46): 25 and 20.1 and 26; Forelimb grip strength, force normalized to body weight (mdx mice; 2 week post treatment): 5.738 and 3.226 and 3.35; Forelimb grip strength, force normalized to body weight (mdx mice; 4 week post treatment): 5.455 and 4.515 and 5.487 and 3.928 and 4.07 and 4.448
